Laboratory results published in PubChem BioAssay (NCI).
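1) Cells in 96-well plates. 2) Compound, 48 h, 5 concentrations. 3) Linear interpolation between surrounding doses. 4) Unreached endpoint = highest concentration. At the GI50, growth is halved. At the TGI there is no net growth.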

Columns and labels:
Assay in all cases: NCI-60 cell line screen, 48 h
[1] = test system: 786-0 renal
[2] = test system: A498 renal
[3] = test system: A549 NSCLC
[4] = test system: ACHN renal
[5] = test system: BT-549 breast
[6] = test system: CAKI-1 renal
[7] = test system: CCRF-CEM leukemia
[8] = test system: COLO 205 colon
[9] = test system: DU-145 prostate
[10] = test system: EKVX NSCLC
[11] = test system: HCC-2998 colon
[12] = test system: HCT-116 colon
[13] = test system: HCT-15 colon
[14] = test system: HL-60(TB) leukemia
[15] = test system: HOP-62 NSCLC
[16] = test system: HOP-92 NSCLC
[17] = test system: HS 578T breast
[18] = test system: HT29 colon
[19] = test system: IGROV1 ovarian
[20] = test system: K-562 leukemia
[21] = test system: KM12 colon
[22] = test system: LOX IMVI melanoma
[23] = test system: M14 melanoma
[24] = test system: MALME-3M melanoma
[25] = test system: MCF7 breast
[26] = test system: MDA-MB-231 breast
[27] = test system: MDA-MB-435
[28] = test system: MOLT-4 leukemia
[29] = test system: NCI-H226 lung
[30] = test system: NCI-H23 lung
[31] = test system: NCI-H460 lung
[32] = test system: NCI-H522 lung
[33] = test system: NCI/ADR-RES ovarian
[34] = test system: OVCAR-3 ovarian
[35] = test system: OVCAR-4 ovarian
[36] = test system: OVCAR-5 ovarian
[37] = test system: OVCAR-8 ovarian
[38] = test system: PC-3 prostate
[39] = test system: RPMI-8226 leukemia
[40] = test system: RXF 393 renal
[41] = test system: SF-268 CNS
[42] = test system: SF-295 CNS
[43] = test system: SF-539 CNS
[44] = test system: SK-MEL-2 melanoma
[45] = test system: SK-MEL-28 melanoma
[46] = test system: SK-MEL-5 melanoma
[47] = test system: SK-OV-3 ovarian
[48] = test system: SN12C renal
[49] = test system: SNB-19 CNS
[50] = test system: SNB-75 CNS
[51] = test system: SR leukemia
[52] = test system: SW-620 colon
[53] = test system: T-47D breast
[54] = test system: TK-10 renal
[55] = test system: U251 CNS
[56] = test system: UACC-257 melanoma
[57] = test system: UACC-62 melanoma
[58] = test system: UO-31 renal

## COc1ccc(-c2nn(C(=O)NCCN(C)C)cc2-c2ccncc2)cc1Cl
[1]
  GI50: 7.62 µM
  TGI: 51.5 µM
[2]
  GI50: 2.12 µM
  TGI: 5.95 µM
[3]
  GI50: 5.44 µM
  TGI: > 100 µM
[4]
  GI50: 3.76 µM
  TGI: > 100 µM
[5]
  GI50: 4.51 µM
  TGI: > 100 µM
[6]
  GI50: 3.24 µM
  TGI: 24.4 µM
[7]
  GI50: 7.47 µM
  TGI: > 100 µM
[8]
  GI50: 3.5 µM
  TGI: 13.9 µM
[9]
  GI50: 6.94 µM
  TGI: 65.6 µM
[10]
  GI50: 2.23 µM
  TGI: > 100 µM
[11]
  GI50: 10.1 µM
  TGI: 46.4 µM
[12]
  GI50: 4.6 µM
  TGI: > 100 µM
[13]
  GI50: 3.93 µM
  TGI: > 100 µM
[14]
  GI50: 5.3 µM
  TGI: 57.9 µM
[15]
  GI50: 2.99 µM
  TGI: 20.9 µM
[16]
  GI50: 1.16 µM
  TGI: 56.3 µM
[17]
  GI50: 2.79 µM
  TGI: 9.21 µM
[18]
  GI50: 2.17 µM
  TGI: 12.6 µM
[19]
  GI50: 8.74 µM
  TGI: > 100 µM
[20]
  GI50: 5.66 µM
  TGI: > 100 µM
[21]
  GI50: 4.01 µM
  TGI: 43.5 µM
[22]
  GI50: 4.23 µM
  TGI: 48.9 µM
[23]
  GI50: 5.52 µM
  TGI: 24.4 µM
[24]
  GI50: 11.8 µM
  TGI: > 100 µM
[25]
  GI50: 3.57 µM
  TGI: > 100 µM
[26]
  GI50: 6.34 µM
  TGI: > 100 µM
[27]
  GI50: 1.15 µM
  TGI: 4.34 µM
[28]
  GI50: 4.67 µM
  TGI: > 100 µM
[29]
  GI50: 4.11 µM
  TGI: 63.7 µM
[30]
  GI50: 6.29 µM
  TGI: 60.7 µM
[31]
  GI50: 3.83 µM
  TGI: 35.4 µM
[32]
  GI50: 1.88 µM
  TGI: 5.36 µM
[33]
  GI50: 3.1 µM
  TGI: > 100 µM
[34]
  GI50: 4.32 µM
  TGI: 39.1 µM
[35]
  GI50: 7.87 µM
  TGI: > 100 µM
[36]
  GI50: 15.1 µM
  TGI: > 100 µM
[37]
  GI50: 1.73 µM
  TGI: 35.9 µM
[38]
  GI50: 4.62 µM
  TGI: > 100 µM
[39]
  GI50: 9.71 µM
  TGI: 81.8 µM
[40]
  GI50: 2.19 µM
  TGI: 12.8 µM
[41]
  GI50: 3.68 µM
  TGI: 37.2 µM
[42]
  GI50: 3 µM
  TGI: 42.6 µM
[43]
  GI50: 2.28 µM
  TGI: 13.1 µM
[44]
  GI50: 3.67 µM
  TGI: 9.48 µM
[45]
  GI50: 4.01 µM
  TGI: 38.3 µM
[46]
  GI50: 3.05 µM
  TGI: 11.4 µM
[47]
  GI50: 3.12 µM
  TGI: 15.5 µM
[48]
  GI50: 5.39 µM
  TGI: > 100 µM
[49]
  GI50: 5.15 µM
  TGI: > 100 µM
[50]
  GI50: 1.68 µM
  TGI: 6.19 µM
[51]
  GI50: 6.03 µM
  TGI: > 100 µM
[52]
  GI50: 3.35 µM
  TGI: > 100 µM
[53]
  GI50: 11.6 µM
  TGI: > 100 µM
[54]
  GI50: 1.86 µM
  TGI: 56.1 µM
[55]
  GI50: 3.71 µM
  TGI: > 100 µM
[56]
  GI50: 16.6 µM
  TGI: > 100 µM
[57]
  GI50: 3.07 µM
  TGI: 14.3 µM
[58]
  GI50: 8.62 µM
  TGI: 53.6 µM

## Cc1ccc(C(=Nc2ccccc2)N=P(c2ccccc2)(c2ccccc2)c2ccccc2)cc1
[1]
  GI50: 1.71 µM
  TGI: 4.29 µM
[2]
  GI50: 1.72 µM
  TGI: 5.32 µM
[3]
  GI50: 1.43 µM
  TGI: 15 µM
[4]
  GI50: 1.34 µM
[5]
  GI50: 1.54 µM
  TGI: 3.96 µM
[6]
  GI50: 1.82 µM
[7]
  GI50: 2.51 µM
  TGI: 6.5 µM
[8]
  GI50: 0.833 µM
  TGI: 2.32 µM
[9]
  GI50: 2.09 µM
[10]
  GI50: 1.44 µM
[11]
  GI50: 1.22 µM
  TGI: 3.72 µM
[12]
  GI50: 0.986 µM
  TGI: 3.92 µM
[13]
  GI50: 1.22 µM
[14]
  GI50: 0.235 µM
  TGI: 0.593 µM
[15]
  GI50: 2.14 µM
[16]
  TGI: 1.4 µM
[17]
  GI50: 1.48 µM
  TGI: 7.84 µM
[18]
  GI50: 1.15 µM
  TGI: > 36.8 µM
[19]
  GI50: 0.621 µM
  TGI: 4.96 µM
[20]
  GI50: 4.22 µM
  TGI: > 100 µM
[21]
  GI50: 1.07 µM
  TGI: 4.71 µM
[22]
  GI50: 0.949 µM
  TGI: 4.28 µM
[23]
  GI50: 1.81 µM
  TGI: 8.77 µM
[24]
  GI50: 0.288 µM
  TGI: 0.946 µM
[25]
  GI50: 1.43 µM
  TGI: 4.85 µM
[26]
  GI50: 2.21 µM
  TGI: 7.75 µM
[27]
  GI50: 0.955 µM
  TGI: 3.23 µM
[28]
  GI50: 0.328 µM
  TGI: 1.29 µM
[29]
  GI50: 1.57 µM
  TGI: 9.38 µM
[30]
  GI50: 3.11 µM
  TGI: 12.5 µM
[31]
  GI50: 1.22 µM
  TGI: 4.23 µM
[32]
  GI50: 1.44 µM
  TGI: 9.73 µM
[33]
  GI50: 3.61 µM
[34]
  GI50: 1.12 µM
[35]
  GI50: 1.53 µM
  TGI: > 31 µM
[36]
  GI50: 2.98 µM
[37]
  GI50: 3.34 µM
  TGI: > 100 µM
[38]
  GI50: 1.74 µM
  TGI: 4.04 µM
[39]
  GI50: 1.18 µM
  TGI: 2.86 µM
[40]
  GI50: 0.695 µM
  TGI: 2.52 µM
[41]
  GI50: 1.79 µM
[42]
  GI50: 0.875 µM
  TGI: 7.12 µM
[43]
  GI50: 2.18 µM
  TGI: 8.68 µM
[44]
  GI50: 1.31 µM
  TGI: 5.44 µM
[45]
  GI50: 1.63 µM
  TGI: 10 µM
[46]
  GI50: 0.739 µM
  TGI: 1.93 µM
[47]
  GI50: 1.98 µM
  TGI: 5.22 µM
[48]
  GI50: 1.41 µM
  TGI: 9 µM
[49]
  GI50: 2.12 µM
[50]
  GI50: 2.44 µM
  TGI: 14.8 µM
[51]
  GI50: 1.67 µM
  TGI: 14.9 µM
[52]
  GI50: 1.26 µM
[53]
  GI50: 1.24 µM
[54]
  GI50: 1.18 µM
  TGI: 4.14 µM
[55]
  GI50: 1.15 µM
[56]
  GI50: 1.32 µM
  TGI: 3.74 µM
[57]
  GI50: 1.19 µM
  TGI: 5.07 µM
[58]
  GI50: 1.32 µM
  TGI: 3.8 µM
